Measurements from patent US9820487B2, “Abscinazole” (NATIONAL UNIVERSITY CORPORATION SHIZUOKA UNIVERSITY, priority 2014, dated 2017).

Columns and labels:
[1] = target: T1, abscisic acid 8′-hydroxylase CYP707A3 (Arabidopsis thaliana, UniProt Q9FH76); assay: Abscisic acid 8′-hydroxylase CYP707A3 inhibition test; type: biochemical; settings: CYP707A3 + NADPH-P450 reductase ATR1, substrate ABA, 30° C. 10 minutes; IC50 calculated from two concentrations
T1 sequence (Q9FH76 1-463): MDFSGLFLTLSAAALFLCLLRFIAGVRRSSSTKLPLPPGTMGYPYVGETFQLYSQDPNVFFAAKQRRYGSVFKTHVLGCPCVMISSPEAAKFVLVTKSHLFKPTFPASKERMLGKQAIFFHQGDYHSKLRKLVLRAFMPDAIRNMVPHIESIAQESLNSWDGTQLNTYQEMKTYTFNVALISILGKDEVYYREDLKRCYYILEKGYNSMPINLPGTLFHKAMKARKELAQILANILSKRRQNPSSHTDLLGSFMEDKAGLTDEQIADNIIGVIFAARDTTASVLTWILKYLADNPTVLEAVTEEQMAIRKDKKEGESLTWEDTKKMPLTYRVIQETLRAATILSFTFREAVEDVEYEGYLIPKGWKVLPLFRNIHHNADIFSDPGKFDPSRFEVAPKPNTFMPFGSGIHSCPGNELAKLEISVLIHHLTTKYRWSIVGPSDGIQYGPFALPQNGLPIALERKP
Protocol: In a 1.5 mL microtube, 10 μL of a solution of substrate 250 μM ABA in potassium/phosphate buffer (KPB), 5 μL of a solution of the sample in dimethylformamide, 435 μL of KPB and 40 μL of abscisic acid 8′-hydroxylase CYP707A3+NADPH-P450 reductase ATR1 were put and heated at 30° C. for 10 minutes. 10 μL of a solution of 5 mg/mL NADPH in KPB was added thereto thereby starting the enzyme reaction. The reaction was carried out at 30° C. for 10 minutes at a rotation speed of 1000 rpm, and 25 μL of an aqueous solution of 1 M sodium hydroxide was added thereto thereby terminating the reaction. The reaction solution was allowed to stand at 4° C. for 30 minutes and subsequently 50 μL of 1 M hydrochloric acid was added thereto to convert the enzyme metabolite to phaseic acid (PA). The enzyme reaction solution was subjected to an OASIS HLB cartridge (1 cc, 30 mg; washed with 1 mL of methanol (1% acetic acid) and equilibrated with 1 mL of water (1% acetic acid)) and washed with 1 mL of 10% methanol/water (1% acetic acid) thereby eluting phaseic acid with 1 mL of methanol (1% acetic acid). The eluate was concentrated under reduced pressure (toluene was added to azeotrope acetic acid), the obtained substance was dissolved in 50 μL of methanol. 20 μL of the solution was subjected to HPLC (column, YMC-Pack Hydrosphere C18 (6 mm inner diameter×150 mm length); flow rate 1 mL/min; detection 254 nm) analysis. The CYP707A3 inhibition rate of the samples was calculated in accordance with the following formula (3). Note that dimethylformamide was used for the control in place of the sample solution. Each sample was tested with two different concentrations to calculate the 50% inhibition concentration (IC50) based on the enzyme inhibition rates thereof The results are shown in Table 1.
Enzyme inhibition rate (%)={1-(PA peak area of each sample/PA peak area of control)}×100 . . . (3)

[2] = test system: thale cress (Arabidopsis thaliaria, Col-0); assay: Thale cress growth test (survival after dry treatment); type: in vivo
Protocol: Five plant bodies of 2-week old thale cress (Arabidopsis thaliaria, Col-0) grown in Gelzan medium (containing MS medium mixed salts and 1% sucrose) were transplanted to a 200 mL-plastic pot containing a culture soil obtained by mixing vermiculite and premix in 1:1 and grown at 22° C. for 2 weeks under the condition of 16 hour light period—8 hour dark period. At this stage, the moisture content was adjusted so that the mass of the pot containing the plant and the culture soil was to be about 150 g. 50 ml, of a 50 μM aqueous solution of the (−) form of Example 1 (containing 0.05% Tween-20 and 0.2% MeOH) was sprayed to the above-ground part on 27 pots (135 seedlings of thale cress in total) once a day for 3 days. The pots on which above-ground part were sprayed with 50 mL of an aqueous solution free from the above compound (containing 0.05% Tween-20 and 0.2% MeOH) once a day for 3 days were used as controls. The pots were dry-treated for 12 days and subsequently watered, and the number of plant bodies survived 3 days later was counted, from which the survival rate was calculated in accordance with the following formula (5).
Survival rate (%)=Number of plant bodies survived (piece)/Total number of plant bodies (piece)×100 . . .(5)

COCCOCCOCCOCC#Cc1cccc(/C=C(\[C@@H](O)C(C)(C)C)n2cncn2)c1 [Example 1 (−) Form, (−)-(S)-(E)-1-(3-(2,5,8,11-tetraoxatetradec-13-yn-14-yl)phenyl)-4,4-dimethyl-2-(1H-1,2,4-triazol-1-yl)pent-1-en-3-ol]
potency estimated from few doses [1]: 64 nM | survival rate after dry treatment ([2]; 50 μM aqueous solution sprayed once a day for 3 days, dry-treated 12 days, watered, counted 3 days later, control 15%): 75% | withering due to dryness ([2]; sprayed to thale cress, 50 μM, dry treatment 12 days): reduced
